Reference: PubChem BioAssay (NCI)
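Compound exposure: 48 hours, 5 concentrations, 96-well plates. TGI: total growth inhibition.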

Key:
Assay in all cases: NCI-60 cell line screen, 48 h
HL-60(TB) leukemia = test system: HL-60(TB) leukemia
SN12C renal = test system: SN12C renal
HOP-92 NSCLC = test system: HOP-92 NSCLC
NCI-H460 lung = test system: NCI-H460 lung
NCI/ADR-RES ovarian = test system: NCI/ADR-RES ovarian
SNB-75 CNS = test system: SNB-75 CNS
UACC-257 melanoma = test system: UACC-257 melanoma
HCT-15 colon = test system: HCT-15 colon
NCI-H23 lung = test system: NCI-H23 lung
DU-145 prostate = test system: DU-145 prostate
NCI-H522 lung = test system: NCI-H522 lung
SK-MEL-2 melanoma = test system: SK-MEL-2 melanoma
SF-539 CNS = test system: SF-539 CNS
NCI-H226 lung = test system: NCI-H226 lung
MDA-MB-435 = test system: MDA-MB-435
BT-549 breast = test system: BT-549 breast
RPMI-8226 leukemia = test system: RPMI-8226 leukemia

SMILES | TGI (HL-60(TB) leukemia) [µM] | TGI (SN12C renal) [µM] | TGI (HOP-92 NSCLC) [µM] | TGI (NCI-H460 lung) [µM] | TGI (NCI/ADR-RES ovarian) [µM] | TGI (SNB-75 CNS) [µM] | TGI (UACC-257 melanoma) [µM] | TGI (HCT-15 colon) [µM] | TGI (NCI-H23 lung) [µM] | TGI (DU-145 prostate) [µM] | TGI (NCI-H522 lung) [µM] | TGI (SK-MEL-2 melanoma) [µM] | TGI (SF-539 CNS) [µM] | TGI (NCI-H226 lung) [µM] | TGI (MDA-MB-435) [µM] | TGI (BT-549 breast) [µM] | TGI (RPMI-8226 leukemia) [µM]
O=c1cc(-c2cccc(OC(F)(F)F)c2)[nH]c2cc3c(cc12)OCO3 | 0.0315 | > 100 | > 73.6 | 1.1 | 0.236 | 17.3 | > 100 | 2.66 | > 100 | > 100 | > 100 | 0.628 | 0.204 | 9.16 | 0.0367 | 33.5 | 0.271
O=C1CC2(CCC(O)(c3ccc(Cl)cc3)C(C(=O)c3ccc(Cl)cc3)C2)C(=O)c2ccccc2N1 (stereo not given) | > 31.6 | 24.8 | 8.31 | > 100 | > 44.5 | 3.82 | 62.6 | > 100 | 53.8 | > 36.8 | > 100 | > 100 | 11.2 | > 52.5 | > 100 | 49.9 | > 100
O=C1N=C(c2ccccc2)O/C1=C\c1ccccc1 | > 100 | > 100 | > 100 | > 100 | > 100 | > 100 | > 100 | > 100 | > 100 | > 100 | > 100 | > 100 | > 100 | > 100 | > 100 | > 100 | > 100
CC(=O)CCC[C@@H](C)[C@@H]1O[C@H]([C@@]2(C)CCC(=O)O2)C[C@H]2C(CSc3ccccc3)C(=O)O[C@@H]12 (stereo not given in full) | 12.8 | 34.2 | 39.1 | > 57.5 | 43.7 | > 59.4 | 28.1 | 47.3 | 49.3 | 29.1 | 15.2 | 40.6 | 36.9 | 37.5 | 45.6 | 27.5 | 52.1
c1ccc(CCN(Cc2nc3ccccc3[nH]2)Cc2nc3ccccc3[nH]2)cc1 | 7.8 | 30.8 | 30.7 | 28.3 | 18.1 | 36.7 | 32.5 | 22.1 | 37.9 | 31.7 | 49.4 | 36.6 | 38.9 | > 68.5 | 29.8 | 27.2 | 11.6
COc1cc2cc(C(=O)N3CC(CCl)c4ccc(NCCN)cc43)[nH]c2c(OC)c1OC (stereo not given) | 0.226 | 2.42 | 4 | 4 | 1.54 | 0.571 | 0.637 | 4.33 | 1.23 | 6.2 | 0.542 | 0.408 | 1.41 | 1.76 | 0.706 | 1.94 | 1.17
O=[N+]([O-])c1cccc2nccc(NCC(O)CO)c12 (stereo not given) | 49.4 | 41 | 53.8 | 26.3 | 73.3 | > 63.9 | 30 | 22.4 | 43.1 | 75.6 | 26 | 26 | 36.9 | 19.4 | 37.8 | 29.6 | 61.2
O=C(Nc1nc(C23CC4CC(CC(C4)C2)C3)cs1)c1cc2cc(Br)cc(Br)c2oc1=O | > 100 | > 100 | > 100 | > 100 | > 100 | 85.5 | > 100 | > 100 | > 100 | > 100 | > 100 | > 100 | > 100 | > 100 | > 100 | > 100 | > 100
O=C(O)CN1CCN(CC(=O)O)CCN(CC(=O)O)CCN(CC(=O)O)CC1 | > 100 | > 100 | > 100 | > 100 | > 100 | > 100 | > 100 | > 100 | > 100 | > 100 | > 100 | > 100 | > 100 | > 100 | > 100 | > 100 | > 100
CC(C)CCC[C@@H](C)C1CCC2[C@@H]3CCC4CC(CCC=C(c5cc(Cl)c(OC(=O)c6ccccc6)c(C(=O)O)c5)c5cc(Cl)c(OC(=O)c6ccccc6)c(C(=O)O)c5)CC[C@]4(C)C3CC[C@@]21C (stereo not given in full) | > 100 | > 100 | 73.3 | > 100 | > 100 | > 100 | > 100 | > 100 | > 100 | > 100 | > 100 | > 100 | > 100 | > 100 | > 100 | > 100 | > 100
O=C1/C(=C\c2cccc(Oc3ccccc3)c2)SC(c2ccccc2)N1c1ccc(Cl)cc1 (stereo not given) | > 100 | > 100 | > 100 | > 100 | > 100 | > 100 | > 100 | > 100 | 98.7 | > 100 | 96.9 | > 100 | 52.6 | > 100 | > 64.3 | > 100 | 41.9
O=c1c2cccnc2nc2ccc3c[nH][nH]c3c12 | > 10 | > 10 | > 10 | > 10 | > 10 | > 10 | > 10 | > 10 | > 10 | > 10 | > 10 | > 10 | > 10 | > 10 | > 10 | > 10 | > 10
CCN(CC)CCS(=O)c1c2cc(OC)ccc2nc2ccc(OC)cc12 (stereo not given) | > 100 | 9.64 | > 24.3 | > 82.2 | 52.6 | 36 | 17.6 | 16.6 | 41.3 | 4.04 | 1.38 | 40.3 | 6 | 39.5 | 26.6 | 31.2 | 7.11
O=S1(=O)CCN(Cc2ccccc2)/C1=N\S(=O)(=O)c1ccc(Cl)cc1 | 65.9 | 33.3 | 35.3 | 48 | 35.8 | 50.9 | 35.7 | 37 | 35.3 | 35.3 | 29.9 | 53.3 | 36.1 | 34.4 | 36.2 | 31.1 | 79
COC(=O)C1(O)c2ccccc2N=C2C(=O)c3ccccc3N21 (stereo not given) | > 100 | > 100 | > 100 | > 100 | > 100 | > 100 | > 100 | > 100 | > 100 | > 100 | > 100 | > 100 | > 100 | > 100 | 26.3 | > 100 | > 100
